Experimental data reported in patent US20050245399A1, “Pyrazole derivatives as herbicidal compositions containing them” (ISHIHARA SANGYO KAISHA, LTD., priority 2004, published 2005).

Tests used:
Type in all cases: in vivo
[1] = test system: corn (Zea mays L.), ZEAMX; experiment: Test Example 2 post-emergence (foliage treatment) herbicidal activity, ZEAMX; conditions: 63 g a.i./ha
Procedure, shortened: (§1)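 Foliar spray of formulated compound (500 L/ha dilution water, 0.1% v/v spreader) onto young potted plants at defined leaf stages. Scored 0-100% by visual inspection 20-23 d post-spray.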

[2] = test system: corn (Zea mays L.): ZEAMX; experiment: Test Example 1 pre-emergence herbicidal activity, ZEAMX; conditions: Rate 63 g a.i./ha, visually observed 20th to 23rd day after application
Procedure, shortened: (§2)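 Pots of upland soil were sown, and one day later WP or EC formulations at set active-ingredient rates were sprayed pre-emergence in 500 L/ha water. Growth control scored visually 20–23 days after application, 0 (as untreated) to 100 (complete kill).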

[3] = test system: velvetleaf (Abutilon theophrasti), ABUTH; experiment: Test Example 2 post-emergence (foliage treatment) herbicidal activity, ABUTH; conditions: 63 g a.i./ha
Procedure, shortened: as §1

[4] = test system: rice (Oryza sativa L.): ORYSA; experiment: Test Example 1 pre-emergence herbicidal activity, ORYSA; conditions: Rate 63 g a.i./ha, visually observed 20th to 23rd day after application
Procedure, shortened: as §2

[5] = test system: crabgrass (Digitaria sanguinalis L.), DIGSA; experiment: Test Example 2 post-emergence (foliage treatment) herbicidal activity, DIGSA; conditions: 63 g a.i./ha
Procedure, shortened: (§3)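 Plants grown in upland soil pots were sprayed on foliage at set leaf stages (ECHCG 1.1-2.1, DIGSA 1.0-2.0, AMARE 0.1-1.5, ORYSA 1.0-2). Formulated compound was applied at predetermined active-ingredient amounts in 500 L/ha water with 0.1% (v/v) spreader. Growth control (0–100%) was visually scored 20–23 days later.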

[6] = test system: prickly sida (Sida spinosa L.): SEDSP; experiment: Test Example 1 pre-emergence herbicidal activity, SIDSP; conditions: Rate 63 g a.i./ha, visually observed 20th to 23rd day after application
Procedure, shortened: as §2

[7] = test system: redroot pigweed (Amaranthus retroflexus L.), AMARE; experiment: Test Example 2 post-emergence (foliage treatment) herbicidal activity, AMARE; conditions: 63 g a.i./ha
From the text: Upland field soil was put into a 1/170,000 ha pot, and seeds of various plants were sown. Then, when the plants reached predetermined leaf stages {1. barnyardgrass (Echinochloa crus-galli L.), ECHCG: 1.1-2.1 leaf stage, 2. crabgrass (Digitaria sanguinalis L.), DIGSA: 1.0-2.0 leaf stage, 3. green foxtail (Setaria viridis L.), SETVI: 1.0-2.2 leaf stage, 4. redroot pigweed (Amaranthus retroflexus L.), AMARE: 0.1-1.5 leaf stage, 5. prickly sida (Sida spinosa L.), SIDSP: 0.1-0.6 leaf stage, 6. velvetleaf (Abutilon theophrasti), ABUTH: 0.1-0.6 leaf stage, 7. common cocklebur (Xanthium strumarium L.), XANST: 0.1 leaf stage, 8. rice (Oryza sativa L.), ORYSA; 1.0-2 leaf stage, 9. wheat (Triticum aestivum L.), TRZAX: 2.3-3.5 leaf stage, 10. corn (Zea mays L.), ZEAMXN 2.1-2.6 leaf stage, 11. soybean (Glycine max Merr.), GLXMA: primary leaf stage}, a wettable powder or emulsifiable concentrate having the compound of the present invention formulated in accordance with a usual formulation method, was weighed so that the active ingredient would be a predetermined amount, and diluted with water in an amount of 500 L/ha. To the diluted solution, 0.1% (v/v) of an agricultural spreader was added. The herbicide adjusted was applied by a small size sprayer for foliage treatment. On the 20th to 23rd day after the application of the herbicide, the growth of the respective plants was visually observed, and the herbicidal effects were evaluated by growth controlling degrees (%) ranging from 0 (equivalent to the untreated control) to 100 (complete kill), whereby the results shown in Table 5, were obtained. Compound Nos. in Table 5 correspond to Compound Nos. in Table 1 and 2 given hereinbefore.

[8] = test system: rice (Oryza sativa L.), ORYSA; experiment: Test Example 2 post-emergence (foliage treatment) herbicidal activity, ORYSA; conditions: 63 g a.i./ha
Procedure, shortened: as §3

[9] = test system: redroot pigweed (Amaranthus retroflexus L.): AMARE; experiment: Test Example 1 pre-emergence herbicidal activity, AMARE; conditions: Rate 63 g a.i./ha, visually observed 20th to 23rd day after application
Procedure, shortened: as §2

[10] = test system: soybean (Glycine max Merr.): GLXMA; experiment: Test Example 1 pre-emergence herbicidal activity, GLXMA; conditions: Rate 63 g a.i./ha, visually observed 20th to 23rd day after application
Procedure, shortened: as §2

[11] = test system: wheat (Triticum aestivum L.): TRZAX; experiment: Test Example 1 pre-emergence herbicidal activity, TRZAX; conditions: Rate 63 g a.i./ha, visually observed 20th to 23rd day after application
Procedure, shortened: as §2

[12] = test system: barnyardgrass (Echinochloa crus-galli L.), ECHCG; experiment: Test Example 2 post-emergence (foliage treatment) herbicidal activity, ECHCG; conditions: 63 g a.i./ha
Procedure, shortened: as §3

[13] = test system: green foxtail (Setaria viridis L.), SETVI; experiment: Test Example 2 post-emergence (foliage treatment) herbicidal activity, SETVI; conditions: 63 g a.i./ha
Procedure, shortened: as §1

[14] = test system: crabgrass (Digitaria sanguinalis L.): DIGSA; experiment: Test Example 1 pre-emergence herbicidal activity, DIGSA; conditions: Rate 63 g a.i./ha, visually observed 20th to 23rd day after application
Procedure, shortened: as §2

[15] = test system: wheat (Triticum aestivum L.), TRZAX; experiment: Test Example 2 post-emergence (foliage treatment) herbicidal activity, TRZAX; conditions: 63 g a.i./ha
Procedure, shortened: as §1

[16] = test system: velvetleaf (Abutilon theophrasti): ABUTH; experiment: Test Example 1 pre-emergence herbicidal activity, ABUTH; conditions: Rate 63 g a.i./ha, visually observed 20th to 23rd day after application
Procedure, shortened: as §2

[17] = test system: soybean (Glycine max Merr.), GLXMA; experiment: Test Example 2 post-emergence (foliage treatment) herbicidal activity, GLXMA; conditions: 63 g a.i./ha
Procedure, shortened: as §1

[18] = test system: barnyardgrass (Echinochloa crus-galli L.): ECHCG; experiment: Test Example 1 pre-emergence herbicidal activity, ECHCG; conditions: Rate 63 g a.i./ha, visually observed 20th to 23rd day after application
Procedure, shortened: as §2

[19] = test system: green foxtail (Setaria viridis L.): SETVI; experiment: Test Example 1 pre-emergence herbicidal activity, SETVI; conditions: Rate 63 g a.i./ha, visually observed 20th to 23rd day after application
Procedure, shortened: as §2

Structure (SMILES) | growth controlling degree, ZEAMX [1] | Pre-emergence Herbicidal Activity ZEAMX (growth controlling degree) [2] | growth controlling degree, ABUTH [3] | Pre-emergence Herbicidal Activity ORYSA (growth controlling degree) [4] | growth controlling degree, DIGSP [5] | Pre-emergence Herbicidal Activity SIDSP (growth controlling degree) [6] | growth controlling degree, AMARE [7] | growth controlling degree, ORYSA [8] | Pre-emergence Herbicidal Activity AMARE (growth controlling degree) [9] | Pre-emergence Herbicidal Activity GLXMA (growth controlling degree) [10] | Pre-emergence Herbicidal Activity TRZAX (growth controlling degree) [11] | growth controlling degree, ECHCO [12] | growth controlling degree, SETVI [13] | Pre-emergence Herbicidal Activity DIGSP (growth controlling degree) [14] | growth controlling degree, TRZAX [15] | Pre-emergence Herbicidal Activity ABUTH (growth controlling degree) [16] | growth controlling degree, GLXMA [17] | Pre-emergence Herbicidal Activity ECHCG (growth controlling degree) [18] | Pre-emergence Herbicidal Activity SETVI (growth controlling degree) [19]
COc1c(Cl)cc(F)c(-c2nn(C)c(OC(F)F)c2Cl)c1NC(=O)c1cccc(C(F)(F)F)c1 [Compound 1-262] | 40% | 0% | 100% | 10% | 40% | 30% | 100% | 30% | 100% | 0% | 0% | 60% | 80% | 30% | 30% | 20% | 50% | 0% | 30%
COc1c(Cl)cc(F)c(-c2nn(C)c(OC(F)F)c2Cl)c1NC(=O)c1ccc(F)cc1 [Compound 1-263] | 60% | 0% | 100% | 40% | 98% | 100% | 100% | 70% | 100% | 10% | 30% | 98% | 100% | 98% | 30% | 100% | 50% | 90% | 100%
COc1c(Cl)cc(F)c(-c2nn(C)c(OC(F)F)c2Cl)c1NC(=O)C1CC1 [Compound 1-264] | 50% | 0% | 100% | 50% | 100% | 100% | 100% | 80% | 100% | 0% | 20% | 80% | 100% | 100% | 40% | 80% | 70% | 100% | 60%
